Measured values taken from patent US20260159474A1, “Aminoindane Compounds and Compositions and Methods of Their Therapeutic Use” (Solvonis Therapeutics Ireland Holdings Limited, priority 2021, published 2026).
Entries after “also recorded” stand apart in the source; their conditions may differ.

Tests used:
[1] = tested on: extracellular dopamine (DA) in the nucleus accumbens (NAcc); assay: In vivo microdialysis in rat nucleus accumbens, dopamine; parameters: species or system Sprague Dawley rats; conditions: 7 mg/kg I.P.
Method: Methods and Procedure: This study was conducted in compliance with previously described procedures to assure data integrity, adherence to GLP regulations, and standard preclinical study and surgery procedures. The in vivo microdialysis technique was applied to measure the over-time variations of DA, 5-HT, and NE extracellular (EC) concentrations in conscious, freely-moving Sprague Dawley rats. Levels of the neurotransmitters in microdialysis samples were determined using LC-MS/MS analysis. The experiment was also conducted with MDMA for comparative purposes.
As it relates to cannula implantation, the rats were anesthetized with isoflurane 4% in oxygen (2-2.5 L/min), then the isoflurane concentration 2-2.5% was maintained via a nose cone adapted to the stereotaxic apparatus. The rats were treated with meloxicam (0.2 mg/kg, subcutaneously, sc; Meloxidolor) and amoxicilline (150 mg/kg, sc, Betamox LA). The skull was then shaved and disinfected. Rats were then placed in a stereotaxic apparatus for small animals. One vertical guide cannula was inserted through a 1 mm hole drilled on the exposed skull. Coordinates, with respect to the bregma to target specific brain areas, followed indications from stereotaxic atlas of the rat brain. Specifically a guide cannula (MAB 4.12.IC, Agn Tho's AB, Lidinga, Sweden) was inserted in the NAcc (anteroposterior+1.6; lateral −1.6; dorsoventral −6.0). The guide cannula was then secured with dental cement and 2-4 screws. At the end of the surgery the animal was isolated in a single cage during recovery, for a period of at least one week, during which animal health conditions were checked twice daily and the weight recorded twice a week. Animals continued to be housed singly throughout the experiment. One day before the experiment the cannula stylet was removed and a microdialysis probe with a dialyzing length of 2 mm (MAB 4.12.2 Cu, Agn Tho's AB, Lidingo, Sweden) was inserted. Probes can be re-used 2 times for 2 experimental sessions after appropriate cleaning with fresh milliQ water.
Post-surgery, the rats were maintained in a heating chamber prior to waking up in order to avoid hypothermia that could be caused by anaesthesia. 5 mL of physiologic solution was subcutaneously administered immediately after surgery, and once/day for 2-3 days, if signs of dehydration are noticed. Meloxicam (Meloxidolor) 0.2 mg/kg was again administered subcutaneously the day after surgery as well as after 48 h after surgery together with Amoxicilline Long Acting (Betamox LA) 150 mg/kg. Health status and body weight was checked every day during the first week.
The animals were treated with the therapeutic compounds, and MDMA, or their vehicle (saline) according to a Latin square design over 5 separate experimental days (one day/week). The treatments were administered in a volume of 1 mL/kg intraperitoneally.
On the day of the experiment, each animal was taken into the laboratory in its home cage. Inlet tubing of the probe was attached to a dual quartz-lined two channel liquid swivel mounted on a low mass spring counterbalance arm which, in turn, was connected to a gas-tight syringe on a microinfusion pump. […] An equilibration period of about two hours of perfusion was allowed before collecting samples. Following the equilibration period, 4 basal samples were collected for each experimental animal followed by further 10 post-treatment samples. Samples were collected every 20 minutes (up to 3 hours and 20 minutes post-treatment) by means of a refrigerated auto-sampler (Univentor 820 Microsampler, AgnTho's, Sweden) maintained at +8 “C. At the end of all experimental sessions, 2 μL of 0.1% methylene blue solution was injected through the microdialysis probe, animals were euthanized, and their brains removed to confirm the correct probe-position.
As mentioned, the concentration of DA, 5-HT and NE in CSF samples were determined using an optimized method based on LC-MS/MS analysis. […]

[2] = Rat body temperature after IP administration; format: in vivo, Sprague Dawley rats; conditions: 200 minutes after injection
Method: Methods and Procedure: This study was conducted in compliance with previously described procedures to assure data integrity, adherence to GLP regulations, and standard preclinical study and surgery procedures. The in vivo microdialysis technique was applied to measure the over-time variations of DA, 5-HT, and NE extracellular (EC) concentrations in conscious, freely-moving Sprague Dawley rats. At the end of each experimental session (200 minutes after injection), body temperature (° C.) of Sprague Dawley rats was monitored using a digital thermometer with a rectal probe.

SMILES | Dopamine (DA) level (% from baseline) ([1]; 0 min (basal sample)) [%] | Dopamine (DA) level (% from baseline) ([1]; 20 min post-admin) [%] | Dopamine (DA) level (% from baseline) ([1]; 40 min post-admin) [%] | Dopamine (DA) level (% from baseline) ([1]; 60 min post-admin) [%] | Dopamine (DA) level (% from baseline) ([1]; 80 min post-admin) [%] | Dopamine (DA) level (% from baseline) ([1]; 100 min post-admin) [%] | Dopamine (DA) level (% from baseline) ([1]; 120 min post-admin) [%] | Dopamine (DA) level (% from baseline) ([1]; 140 min post-admin) [%] | Dopamine (DA) level (% from baseline) ([1]; 160 min post-admin) [%] | Dopamine (DA) level (% from baseline) ([1]; 180 min post-admin) [%] | Dopamine (DA) level (% from baseline) ([1]; 200 min post-admin) [%] | Dopamine (DA) level (% from baseline) ([1]; −20 min (basal sample)) [%] | change in rat body temperature (rectal) relative to vehicle [2]
COC(=O)c1ccc2c(c1)CC(N)C2 (centres unmarked) [CMP-405, 2-aminoindane-5-methylcarboxylate] | 99 | 134 | 122 | 139 | 117 | 123 | 113 | 99 | 98 | 96 | 107 | 101 | lower than the change observed following administration of MDMA; also recorded: significantly lower than the change in temperature caused by MDMA
CNC(C)Cc1ccc2c(c1)OCO2 (centres unmarked) [MDMA] | 93 | 113 | 381 | 520 | 448 | 399 | 396 | 357 | 324 | 293 | 278 | 107 | 1.6 °C
COc1ccc2c(c1)CC(N)C2 (centres unmarked) [MEAI, 5-methoxy-2-aminoindane] | 96 | 95 | 197 | 187 | 154 | 141 | 130 | 131 | 137 | 144 | 127 | 104 | –
